In publication PMC5059489, “Mechanistic evaluation and transcriptional signature of a glutathione S-transferase omega 1 inhibitor” (Nature Communications, 2016):
Several values for one entry are separate records, joined by “and”; a condition that tells them apart may be missing. Identical values can stand only once.

How the values were obtained:
[1] = target: T1, GSTO1 (Homo sapiens, UniProt P78417); assay: GSTO1 substrate assay (reduction of 4-NPG); conditions: for IC50: read-out: GSTO substrate assay IC50, cluster screening tables
T1 sequence (P78417 1-241): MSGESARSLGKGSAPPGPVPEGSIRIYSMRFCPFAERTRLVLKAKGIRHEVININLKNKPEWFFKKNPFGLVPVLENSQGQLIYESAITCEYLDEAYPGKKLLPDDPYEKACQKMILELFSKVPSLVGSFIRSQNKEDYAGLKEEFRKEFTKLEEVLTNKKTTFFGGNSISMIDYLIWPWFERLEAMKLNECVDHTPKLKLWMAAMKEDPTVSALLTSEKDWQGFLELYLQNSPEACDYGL
Method: For activity screening, we adapted a GSTO1 substrate assay that relies on the quantification of the reduction of S-(4-nitrophenacyl)glutathione (4-NPG), a GSTO1-specific substrate[17], using recombinant human GSTO1 in a high-throughput screening format.
Enzyme activity was measured by monitoring the reduction of 4-NPG to 4-nitroacetophenone by GSTO1.

[2] = system: HCT116p53+/+ cell; assay: MTT cell proliferation at single concentration; type: cell-based, human
Method: Cell proliferation was assessed by a MTT assay. Cancer cells were seeded in 96-well microtitre plates and, after overnight attachment, treated with GSTO1 inhibitors. After 72 h, MTT solution (3 mg ml^−1; 20 μl) was added to each well and cells were incubated for 3 h at 37 °C. After incubation, media from each well was removed and the dark blue formazan crystals formed by live cells were dissolved in DMSO (150 μl per well). The absorbance intensity was measured at 570 nm on a microplate reader (Molecular Devices, Sunnyvale, CA, USA). Cell viability after 24 h treatment was assessed using ApoTox-Glo triplex assay (Promega) according to the manufacturer's protocol. At least three independent dose–response experiments with each concentration tested in triplicate were performed for each cell line.

[3] = target: T1, GSTO1; assay: In-gel fluorescence competitive CMFDA binding assay, recombinant GSTO1; conditions: inhibition of CMFDA binding
From the text: (§1) Primary screening of GSTO inhibitors was based on competitive inhibition of CMFDA binding to endogenous GSTO. Briefly, HCT116^p53+/+ cells (4 × 10^4 per well) were coated in a 12-well plate. […] Cells were then washed with PBS and lysed using Cell Lytic M buffer (Sigma). […] Gels were immediately scanned on a Typhoon variable mode imager (Amersham Bioscience). Quantification of fluorescent band intensity was done using Image Quant 5.2 software.

[4] = target: T2, endogenous GSTO1 (Homo sapiens, UniProt P78417); assay: In-gel fluorescence competitive CMFDA binding assay, endogenous GSTO1 in HCT116; conditions: 10 µM; inhibition of CMFDA binding, HCT116
T2 sequence (P78417 1-241): T1 sequence (P78417 1-241)
From the text: as §1

| SMILES | GSTO substrate assay % Inhibition at 10 µM [1] [%] | GSTO binding assay (% Inhibition at 10 µM) Recombinant [3] [%] | GSTO binding assay (% Inhibition at 10 µM) Endogenous [4] [%] | IC50 [1] [nM] | % Inhibition of HCT116p53+/+ cell proliferation at 10 µM [2] |
| --- | --- | --- | --- | --- | --- |
| CC(C)C(NC(=O)CCl)c1ccc2c(c1)OCCO2 (centres unmarked) [C3-8] | 16.5 | -4.9 | 33.4 | – | 91.2% and 77.9% |
| Cn1ccnc1C(NC(=O)CCl)c1ccccc1 (centres unmarked) [C3-10] | 78.4 | 29.4 | 48.4 | – | 96.5% and 87.4% |
| CN(CC1COc2ccccc2O1)C(=O)CCl (centres unmarked) [C4-8] | 97.2 | 59.5 | 53.0 | 237 | 70.7% |
| CC(NC(=O)CCl)c1cc2ccccc2o1 (centres unmarked) [C3-29] | 73.0 | 46.7 | 88.9 | – | 89.7% |
| COc1cc(NC(=O)CCl)c(Cl)cc1C(=O)O [C1-10] | 81.7 | 49.1 | 49.7 | – | 19.7% |
| C=CCN(C(=O)CCl)c1nc(-c2ccc(Cl)c(Cl)c2)cs1 [C4-5] | 5.0 | -8.2 | 15.9 | – | 9.9% and 16.9% |
| Cc1cc(NC(=O)CCl)ccc1N1CCCC1 [C1-16] | 87.8 | 49.2 | 46.7 | – | 41.9% |
| CCN(Cc1ccc2c(c1)OCO2)C(=O)CCl [C4-11] | 103.4 | 60.0 | 51.8 | 2360 | 2.8% |
| CCOc1cc2c(cc1CNC(=O)CCl)OC(C)C2 (centres unmarked) [C3-5] | 85.1 | 14.7 | 31.8 | – | 64.1% and 63.6% |
| O=C(CCl)NCCC12CC3CC(CC(C3)C1)C2 [C3-34] | 78.6 | 50.9 | 41.7 | – | -2.4% |
| O=C(CCl)NCC1COc2ccccc2O1 (centres unmarked) [C3-9] | 80.7 | 30.7 | 53.9 | – | 24.9% |
| CC(NC(=O)CCl)C12CC3CC(CC(C3)C1)C2 (centres unmarked) [C3-33] | 36.3 | 16.6 | 55.3 | – | 24.7% and 38.5% |
| Cc1cc(S(=O)(=O)N(C)C)cc(NC(=O)CCl)c1C [C1-26] | 31.1 | 51.4 | 48.9 | – | 13.2% |
| CC(=O)c1cc2c(cc1NC(=O)CCl)OCO2 [C1-9] | 12.5 | 56.5 | 39.3 | – | -1.2% |
| CN(Cc1cnn(-c2ccccc2)c1)C(=O)CCl [C4-10] | 99.5 | 66.4 | 53.1 | 1950 | 82.1% |
| O=C(CCl)NNC(=O)c1cc2c(s1)CCCC2 [C3-23] | -3.5 | -4.1 | -11.7 | – | 3.7% |
| CC(=O)N1CCc2cc(NC(=O)CCl)ccc21 [C1-22] | 41.4 | 25.1 | 49.0 | – | 80.8% and 86% |
| O=C(CCl)N(NC(=O)P(=O)(N1CCOCC1)N1CCOCC1)c1ccc(Br)cc1 [C4-20] | -7.3 | 9.3 | 27.6 | – | 10.4% and 6.3% |
| COc1cc(CCNC(=O)CCl)ccc1OC(F)F [C3-11] | 9.8 | 10.1 | 45.6 | – | 8.1% and 16.1% |
| CCOC(=O)c1cc(C(C)C)sc1NC(=O)CCl [C2-8] | 3.8 | 39.2 | 51.7 | – | 4.5% and 0.8% |
| COc1cc(OC)c(OC)cc1CNC(=O)CCl [C3-4] | 31.6 | -2.6 | – | – | 16% and 17.5% |

Second part, led by results:

| GSTO substrate assay % Inhibition at 10 µM [1] [%] | GSTO binding assay (% Inhibition at 10 µM) Recombinant [3] [%] | GSTO binding assay (% Inhibition at 10 µM) Endogenous [4] [%] | IC50 [1] [nM] | SMILES | % Inhibition of HCT116p53+/+ cell proliferation at 10 µM [2] |
| --- | --- | --- | --- | --- | --- |
| 59.8 | 9.4 | 61.5 | – | O=C(CCl)N1CCN(c2ccccc2F)CC1 [C5-3] | 28.2% |
| 11.8 | 2.1 | -20.7 | – | CCCCN(C(=O)CCl)c1c(N)n(CC(C)C)c(=O)[nH]c1=O [C4-19] | 67.3% |
| 83.7 | 62.3 | 52.8 | 381 | O=C(CCl)N1CCN(Cc2cccc3ccccc23)CC1 [C5-9] | 68.4% and 79.3% |
| 5.7 | 57.7 | 62.9 | – | N#CC(c1cccs1)N1CCN(C(=O)CCl)CC1 (centres unmarked) [C5-11] | 19.6% |
| 98.2 | 65.8 | 34.0 | – | O=C(CCl)N(Cc1ccccc1)Cc1ccco1 [C4-15] | -6.8% and -5.5% |
| 78.6 | 44.2 | 51.5 | – | COc1ccc(N2CCN(C(=O)CCl)CC2)cc1 [C5-5] | -16.3% |
| 89.1 | 45.2 | 56.8 | – | NC(=O)CCN(Cc1ccccc1)C(=O)CCl [C4-14] | 70.3% and 75% |
| 84.9 | 66.0 | 47.1 | – | Cc1ccc(C)c(S(=O)(=O)N2CCN(C(=O)CCl)CC2)c1 [C5-12] | 7.3% |
| 58.2 | 52.5 | 66.2 | 559 | CC(C)C(C#N)N1CCN(C(=O)CCl)CC1 (centres unmarked) [C5-2] | 40.2% and 61.1% |
| 41.0 | 13.5 | 33.4 | – | O=C(CCl)N1CCN(c2ccc(O)cc2)CC1 [C5-4] | 81.9% and 84.4% |
| 94.6 | 70.2 | – | 191 | O=C(CCl)N1CCN(c2ncc(C(F)(F)F)cc2Cl)CC1 [C5-6] | 56.2% |
| 61.0 | 68.1 | – | 2290 | CC1Cc2cc(S(N)(=O)=O)ccc2N1C(=O)CCl (centres unmarked) [C5-20] | 80.5% and 89.8% |
| 63.7 | 62.4 | – | 262 | O=C(CCl)N1CCN(S(=O)(=O)c2ccc3c(c2)OCCO3)CC1 [C5-15] | 82.7% and 87.3% |
